Columns and labels:
Format in all cases: functional
[1] = test system: Finegoldia magna; experiment: Antimicrobial activity in Finegoldia magna by CLSI agar dilution method
[2] = test system: Bacteroides fragilis; experiment: Antimicrobial activity in Bacteroides fragilis by CLSI agar dilution method
[3] = test system: Clostridium sp.; experiment: Antimicrobial activity in Clostridium sp. by CLSI agar dilution method
[4] = test system: Prevotella veroralis; experiment: Antimicrobial activity in Prevotella veroralis by CLSI agar dilution method
[5] = test system: Clostridium butyricum; experiment: Antimicrobial activity in Clostridium butyricum by CLSI agar dilution method
[6] = test system: Porphyromonas gingivalis; experiment: Antimicrobial activity in Porphyromonas gingivalis by CLSI agar dilution method
[7] = test system: Fusobacterium varium; experiment: Antimicrobial activity in Fusobacterium varium by CLSI agar dilution method
[8] = test system: Fusobacterium nucleatum; experiment: Antimicrobial activity in Fusobacterium nucleatum by CLSI agar dilution method
[9] = test system: Actinomyces; experiment: Antimicrobial activity in Actinomyces by CLSI agar dilution method
[10] = test system: Tissierella praeacuta; experiment: Antimicrobial activity in Clostridium hastiforme by CLSI agar dilution method
[11] = test system: Porphyromonas asaccharolytica; experiment: Antimicrobial activity in Porphyromonas asaccharolytica by CLSI agar dilution method
[12] = test system: Prevotella disiens; experiment: Antimicrobial activity in Prevotella disiens by CLSI agar dilution method
[13] = test system: Bacteroides ovatus; experiment: Antimicrobial activity in Bacteroides ovatus by CLSI agar dilution method
[14] = test system: Anaerococcus prevotii; experiment: Antimicrobial activity in Anaerococcus prevotii by CLSI agar dilution method
[15] = test system: Prevotella melaninogenica; experiment: Antimicrobial activity in Prevotella melaninogenica by CLSI agar dilution method
[16] = test system: Prevotella intermedia; experiment: Antimicrobial activity in Prevotella intermedia by CLSI agar dilution method
[17] = test system: Prevotella denticola; experiment: Antimicrobial activity in Prevotella denticola by CLSI agar dilution method
[18] = test system: Parabacteroides distasonis; experiment: Antimicrobial activity in Bacteroides distasonis by CLSI agar dilution method
[19] = test system: Prevotella sp.; experiment: Antimicrobial activity in Prevotella sp.by CLSI agar dilution method
[20] = test system: Bacteroides stercoris; experiment: Antimicrobial activity in Bacteroides stercoris by CLSI agar dilution method
[21] = test system: Prevotella bergensis; experiment: Antimicrobial activity in Prevotella bergensis by CLSI agar dilution method; conditions: Hallella bergensis
[22] = test system: Anaerococcus tetradius; experiment: Antimicrobial activity in Anaerococcus tetradius by CLSI agar dilution method
[23] = test system: Clostridioides difficile; experiment: Antimicrobial activity in Clostridium difficile by CLSI agar dilution method
[24] = test system: Prevotella nigrescens; experiment: Antimicrobial activity in Prevotella nigrescens by CLSI agar dilution method
[25] = test system: Parvimonas micra; experiment: Antimicrobial activity in Micromonas micros by CLSI agar dilution method
[26] = test system: Clostridium tertium; experiment: Antimicrobial activity in Clostridium tertium by CLSI agar dilution method
[27] = test system: Peptoniphilus asaccharolyticus; experiment: Antimicrobial activity in Peptoniphilus asaccharolyticus by CLSI agar dilution method
[28] = test system: Eggerthella lenta; experiment: Antimicrobial activity in Eggerthella lenta by CLSI agar dilution method
[29] = test system: [Clostridium] innocuum; experiment: Antimicrobial activity in Clostridium innocuum by CLSI agar dilution method
[30] = test system: Fusobacterium necrophorum; experiment: Antimicrobial activity in Fusobacterium necrophorum by CLSI agar dilution method
[31] = test system: Hoylesella loescheii; experiment: Antimicrobial activity in Prevotella loescheii by CLSI agar dilution method
[32] = test system: Thomasclavelia ramosa; experiment: Antimicrobial activity in Clostridium ramosum by CLSI agar dilution method
[33] = test system: Paraclostridium bifermentans; experiment: Antimicrobial activity in Clostridium bifermentans by CLSI agar dilution method
[34] = test system: Hoylesella oralis; experiment: Antimicrobial activity in Prevotella oralis group by CLSI agar dilution method
[35] = test system: Prevotella buccae; experiment: Antimicrobial activity in Prevotella buccae by CLSI agar dilution method; conditions: Segatella buccae
[36] = test system: Clostridium cadaveris; experiment: Antimicrobial activity in Clostridium cadaveris by CLSI agar dilution method
[37] = test system: Clostridium perfringens; experiment: Antimicrobial activity in Clostridium perfringens by CLSI agar dilution method
[38] = test system: Paeniclostridium sordellii; experiment: Antimicrobial activity in Clostridium sordellii by CLSI agar dilution method; conditions: Paraclostridium sordellii
[39] = test system: Peptostreptococcus anaerobius; experiment: Antimicrobial activity in Peptostreptococcus anaerobius by CLSI agar dilution method
[40] = test system: Enterocloster clostridioformis; experiment: Antimicrobial activity in Clostridium clostridioforme by CLSI agar dilution method
[41] = test system: Lactobacillus; experiment: Antimicrobial activity in Lactobacillus by CLSI agar dilution method
[42] = test system: Bacteroides uniformis; experiment: Antimicrobial activity in Bacteroides uniformis by CLSI agar dilution method
[43] = test system: Prevotella bivia; experiment: Antimicrobial activity in Prevotella bivia by CLSI agar dilution method
[44] = test system: Prevotella salivae; experiment: Antimicrobial activity in Prevotella salivae by CLSI agar dilution method; conditions: Segatella salivae
[45] = test system: Prevotella corporis; experiment: Antimicrobial activity in Prevotella corporis by CLSI agar dilution method
[46] = test system: Phocaeicola vulgatus; experiment: Antimicrobial activity in Bacteroides vulgatus by CLSI agar dilution method
[47] = test system: Fusobacterium mortiferum; experiment: Antimicrobial activity in Fusobacterium mortiferum by CLSI agar dilution method
[48] = test system: Cutibacterium acnes; experiment: Antimicrobial activity in Propionibacterium acnes by CLSI agar dilution method
[49] = test system: Bifidobacterium; experiment: Antimicrobial activity in Bifidobacterium by CLSI agar dilution method
[50] = test system: Prevotella baroniae; experiment: Antimicrobial activity in Prevotella baroniae by CLSI agar dilution method; conditions: Segatella baroniae
[51] = test system: Bacteroides thetaiotaomicron; experiment: Antimicrobial activity in Bacteroides thetaiotaomicron by CLSI agar dilution method

C[C@@H](O)[C@H]1C(=O)N2C(C(=O)O)=C(SCCNC=N)C[C@H]12 [IMIPENEM ANHYDROUS]
≤ 0.016 µg/mL: MIC [6] | MIC [11] | MIC [14] | MIC [16] | MIC50 [16] | MIC [24] | MIC50 [24] | MIC [27] | MIC50 [27] | MIC [30] | MIC50 [30] | MIC [34] | MIC [45] | MIC50 [45]
4 µg/mL: MIC50 [23] | MIC90 [23]
1 µg/mL: MIC50 [3] | MIC90 [3] | MIC90 [7] | MIC90 [18] | MIC90 [39] | MIC [40] | MIC50 [41] | MIC90 [47]
0.5 µg/mL: MIC [5] | MIC [7] | MIC50 [7] | MIC50 [18] | MIC50 [28] | MIC90 [28] | MIC50 [46] | MIC90 [46] | MIC50 [47]
2 µg/mL: MIC [10] | MIC90 [41]
0.25 µg/mL: MIC90 [2] | MIC90 [13] | MIC [20] | MIC50 [20] | MIC [26] | MIC50 [26] | MIC [32] | MIC [33] | MIC [42] | MIC50 [42] | MIC90 [43] | MIC [51] | MIC50 [51] | MIC90 [51]
0.06 µg/mL: MIC [1] | MIC50 [1] | MIC90 [8] | MIC [9] | MIC50 [12] | MIC90 [16] | MIC [21] | MIC90 [22] | MIC90 [24] | MIC90 [25] | MIC [38] | MIC [39] | MIC50 [39]
0.125 µg/mL: MIC90 [1] | MIC50 [2] | MIC50 [9] | MIC [13] | MIC50 [13] | MIC90 [15] | MIC90 [17] | MIC [29] | MIC90 [35] | MIC [36] | MIC50 [37] | MIC90 [37] | MIC90 [49]
0.03 µg/mL: MIC [4] | MIC50 [8] | MIC [12] | MIC50 [15] | MIC50 [17] | MIC [19] | MIC50 [22] | MIC [25] | MIC50 [25] | MIC [31] | MIC [35] | MIC50 [35] | MIC [43] | MIC50 [43] | MIC [44] | MIC50 [48] | MIC90 [48] | MIC [49] | MIC50 [49] | MIC [50]

Cc1ncc([N+](=O)[O-])n1CCO [METRONIDAZOLE]
≤ 0.125 µg/mL: MIC [5] | MIC [6] | MIC [8] | MIC50 [8] | MIC [11] | MIC [27] | MIC [29] | MIC [30] | MIC [34] | MIC [36] | MIC [40] | MIC [44] | MIC [45]
1 µg/mL: MIC90 [1] | MIC50 [2] | MIC90 [2] | MIC50 [3] | MIC90 [3] | MIC [12] | MIC50 [12] | MIC50 [13] | MIC90 [13] | MIC [14] | MIC90 [15] | MIC90 [16] | MIC90 [17] | MIC50 [18] | MIC90 [18] | MIC [20] | MIC50 [20] | MIC50 [22] | MIC90 [22] | MIC90 [24] | MIC50 [26] | MIC50 [27] | MIC [32] | MIC50 [35] | MIC50 [37] | MIC90 [37] | MIC [38] | MIC90 [39] | MIC90 [46] | MIC [51] | MIC50 [51]
0.5 µg/mL: MIC50 [1] | MIC90 [7] | MIC90 [8] | MIC50 [15] | MIC50 [16] | MIC50 [17] | MIC [19] | MIC [21] | MIC50 [23] | MIC90 [23] | MIC50 [24] | MIC90 [25] | MIC [26] | MIC50 [28] | MIC90 [28] | MIC [31] | MIC50 [39] | MIC [42] | MIC50 [42] | MIC50 [45] | MIC50 [46] | MIC90 [47] | MIC [50]
16 µg/mL: MIC90 [41]
4 µg/mL: MIC90 [43]
> 16 µg/mL: MIC50 [9] | MIC [41] | MIC50 [41] | MIC [48] | MIC50 [48] | MIC90 [48] | MIC50 [49] | MIC90 [49]
> 1 µg/mL: MIC [9]
2 µg/mL: MIC90 [35] | MIC50 [43] | MIC90 [51]
0.25 µg/mL: MIC [4] | MIC50 [7] | MIC [10] | MIC50 [25] | MIC50 [30] | MIC [33] | MIC50 [47]
